# Source: US20130345199A1, “1-[M-CARBOXAMIDO(HETERO)ARYL-METHYL]-PIPERIDINE-4-CARBOXAMIDE DERIVATIVES” (Actelion Pharmaceuticals Ltd., priority 2012, published 2013)
# Molecular target: T1, CXCR7 (Homo sapiens, UniProt P25106)
# T1 construct: host or cells: CHO-K1 (PathHunter CXCR7 b-arrestin cell line, stably transfected)
# Experiment: PathHunter CHO-K1 CXCR7 b-arrestin assay (agonistic activity)
# Type: cell-based
# Conditions: PathHunter CHO-K1 CXCR7 b-arrestin cell line, 90 minutes at 37° C.
# Description: The […] receptor and CXCR7 agonistic activities of the compounds of formula (I) are determined in accordance with the following experimental method.
# The assay is using the PathHunter™ CHO-K1 CXCR7 b-arrestin cell line from DiscoverX. The system is based on the Enzyme Fragment Complementation Technology. Two complementing fragments of the b-galactosidase enzyme are expressed within stably transfected cells. The larger portion of b-gal, termed EA for Enzyme Acceptor, is fused to the C-terminus of b-arrestin 2. The smaller fragment, termed ProLink™ tag, is fused to CXCR7 at the C-terminus. Upon activation, b-arrestin is recruited which forces the interaction of ProLink and EA, allowing complementation of the two fragments of b-gal and the formation of a functional enzyme which is capable of hydrolysing the substrate and generating a chemiluminescent signal.
# CHO-K1 CXCR7 b-arrestin cells are detached from culture dishes with a cell dissociation buffer (Invitrogen, #13151-014) and collected in growing medium (F12HAMS 90% (v/v)/FCS 10% (v/v), Penicilin/streptomycin 1% (v/v)). 5000 cells per well (in 20 μl) are seeded in a 384 well plate (white-walled, clear bottom; BD Falcon #353274). The plate is incubated at 37° C./5% CO2 for 24 hours. Medium is then replaced by […] (Invitrogen #31985) for 3 to 4 hours. Test compounds are dissolved at 10 mM in DMSO and serially diluted in DMSO to 200× of the final concentration for dose response curves. Compounds are then diluted 1:33.3 in HBSS1X. 5 μl/well of HBSS1X/20 mM HEPES/0.2% BSA are added to the assay plate followed by addition of 5 μl/well of diluted compounds. CXCL12 (Peprotech #300-28A) may be used as a reference agonist. The plate is incubated for 90 minutes at 37° C. 12 μl of detection reagent (Path Hunter Detection Kit, DiscoveRx, #93-0001) is transferred to the assay plate and to the plate is incubated for 1 hour at room temperature. Luminescent signal is read in a microplate reader (FLUOstar Optima, bmg). The calculated EC50 values may fluctuate depending on the daily cellular assay performance. Fluctuations of this kind are known to those skilled in the art.
# T1 sequence (P25106 whole entry): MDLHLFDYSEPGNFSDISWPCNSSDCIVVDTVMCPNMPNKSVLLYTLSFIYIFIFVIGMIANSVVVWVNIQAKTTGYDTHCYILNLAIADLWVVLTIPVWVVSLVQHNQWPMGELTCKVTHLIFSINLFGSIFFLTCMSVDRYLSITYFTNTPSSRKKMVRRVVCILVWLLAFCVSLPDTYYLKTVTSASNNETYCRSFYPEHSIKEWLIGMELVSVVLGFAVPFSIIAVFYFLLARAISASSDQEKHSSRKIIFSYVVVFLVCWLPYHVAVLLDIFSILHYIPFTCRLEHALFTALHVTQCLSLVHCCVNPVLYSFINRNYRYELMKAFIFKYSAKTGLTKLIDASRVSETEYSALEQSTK
row,Compound,EC50 [µM]
1,"O=C(Nc1cc(CN2CCC(C(=O)NC3CCCCC3)CC2)ccn1)c1ccc(Cl)cc1 [Example 3.002, 1-[2-(4-Chloro-benzoylamino)-pyridin-4-ylmethyl]-piperidine-4-carboxylic acid cyclohexylamide]",0.057
2,O=C(Nc1cccc(CN2CCC(C(=O)NCc3ccccc3)CC2)c1)c1cccs1 [Example 2.076],0.78
3,"O=C(Nc1cccc(CN2CCC(F)(C(=O)NC3CCCCC3)CC2)c1)c1cccc(C(F)(F)F)n1 [Example 4.008, 6-Trifluoromethyl-pyridine-2-carboxylic acid [3-(4-cyclohexylcarbamoyl-4-fluoro-piperidin-1-ylmethyl)-phenyl]-amide]",0.071
4,CC(C)(C)C1CCC(NC(=O)C2CCN(Cc3cccc(NC(=O)c4ccc(Cl)cc4)c3)CC2)CC1 (stereo not drawn) [Example 2.012],1.05
5,CC(C)(CO)NC(=O)C1CCN(Cc2cccc(NC(=O)c3cccc(C(F)(F)F)n3)c2)CC1 [Example 2.091],0.006
6,Cc1cncc(C(=O)Nc2cccc(CN3CCC(C(=O)NCC4CC4)CC3)c2)c1 [Example 2.043],0.02
7,rac-2-Methyl-pyrimidine-4-carboxylic acid {3-[1-(4-cyclohexylcarbamoyl-piperidin-1-yl)-ethyl]-phenyl}-amide [Example 1.197],0.015
8,COC(C)CNC(=O)C1CCN(Cc2cccc(NC(=O)c3cccc(C(F)(F)F)n3)c2)CC1 (stereo not drawn) [Example 2.093],0.006
9,"O=C(Nc1cccc(CN2CCC(C(=O)NC3CCCCC3)CC2)c1)c1ccc(Cl)cc1 [Example 1.001, 1-[3-(4-Chloro-benzoylamino)-benzyl]-piperidine-4-carboxylic acid cyclohexylamide]",0.002
10,COc1ccccc1CNC(=O)C1CCN(Cc2cccc(NC(=O)c3ccc(Cl)cc3)c2)CC1 [Example 2.026],0.015
11,"O=C(Nc1cccc(CN2CCC(C(=O)NC3CCCCC3)CC2)c1)c1ccc(F)c[n+]1[O-] [Example 4.005, 5-Fluoro-1-oxy-pyridine-2-carboxylic acid [3-(4-cyclohexylcarbamoyl-piperidin-1-ylmethyl)-phenyl]-amide]",0.004
12,"CC(C)(C)NC(=O)C1CCN(Cc2cc(NC(=O)c3cccc(C(F)(F)F)n3)ncn2)CC1 [Example 5.001, 6-Trifluoromethyl-pyridine-2-carboxylic acid [6-(4-tert-butylcarbamoyl-piperidin-1-ylmethyl)-pyrimidin-4-yl]-amide]",0.029
13,O=C(Nc1cccc(CN2CCC(C(=O)NC3Cc4ccccc4C3)CC2)c1)c1ccc(Cl)cc1 [Example 2.033],0.009
14,CCC(C)(C)NC(=O)C1CCCN(Cc2cccc(NC(=O)c3cncc(C)c3)c2)CC1 (racemic) [Example 2.085],0.068
15,Cc1cncc(C(=O)Nc2cccc(CN3CCC(C(=O)N4CCC(C)(C)C4)CC3)c2)c1 [Example 2.061],0.064
16,O=C(Nc1cccc(CN2CCC(C(=O)NCc3nccs3)CC2)c1)c1ccc(Cl)cc1 [Example 2.024],0.032
17,Cc1cncc(C(=O)Nc2cccc(CN3CCC(C(=O)NC(C)(C)C)CC3)c2)c1 [Example 2.039],0.003
18,CCC(CC)NC(=O)C1CCN(Cc2cccc(NC(=O)c3cncc(C)c3)c2)CC1 [Example 2.040],0.008
19,CCCCNC(=O)C1CCN(Cc2cccc(NC(=O)c3cccc(C(F)(F)F)n3)c2)CC1 [Example 2.095],0.002
20,CC(C)(C)CCNC(=O)C1CCN(Cc2cccc(NC(=O)c3cccc(C(F)(F)F)n3)c2)CC1 [Example 2.082],0.121
21,O=C(Nc1cccc(CN2CCC(C(=O)NC3CCCCC3)CC2)c1)c1cccs1 [Example 2.075],0.007
22,COCC(C)NC(=O)C1CCN(Cc2cccc(NC(=O)c3cccc(C(F)(F)F)n3)c2)CC1 (stereo not drawn) [Example 2.092],0.003
23,CNC(=O)C1CCN(Cc2cccc(NC(=O)c3cccc(C(F)(F)F)n3)c2)CC1 [Example 2.068],0.004
24,CC(C)CCNC(=O)C1CCN(Cc2cccc(NC(=O)c3cccc(C(F)(F)F)n3)c2)CC1 [Example 2.081],0.005
